Target: T1, human C1 r (Homo sapiens, UniProt P00736)
T1 construct: purchased Enzyme Research Labs (South Bend, Ind.)
T1 sequence (P00736 464-705 limits assumed): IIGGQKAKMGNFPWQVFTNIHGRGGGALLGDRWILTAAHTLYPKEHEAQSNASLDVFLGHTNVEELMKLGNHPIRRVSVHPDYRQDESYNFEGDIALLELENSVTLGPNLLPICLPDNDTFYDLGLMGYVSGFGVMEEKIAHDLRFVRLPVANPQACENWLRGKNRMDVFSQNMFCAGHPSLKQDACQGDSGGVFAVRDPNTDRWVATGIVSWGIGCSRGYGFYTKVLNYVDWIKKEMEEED
T1 sequence (P00736 18-463 partner limits assumed): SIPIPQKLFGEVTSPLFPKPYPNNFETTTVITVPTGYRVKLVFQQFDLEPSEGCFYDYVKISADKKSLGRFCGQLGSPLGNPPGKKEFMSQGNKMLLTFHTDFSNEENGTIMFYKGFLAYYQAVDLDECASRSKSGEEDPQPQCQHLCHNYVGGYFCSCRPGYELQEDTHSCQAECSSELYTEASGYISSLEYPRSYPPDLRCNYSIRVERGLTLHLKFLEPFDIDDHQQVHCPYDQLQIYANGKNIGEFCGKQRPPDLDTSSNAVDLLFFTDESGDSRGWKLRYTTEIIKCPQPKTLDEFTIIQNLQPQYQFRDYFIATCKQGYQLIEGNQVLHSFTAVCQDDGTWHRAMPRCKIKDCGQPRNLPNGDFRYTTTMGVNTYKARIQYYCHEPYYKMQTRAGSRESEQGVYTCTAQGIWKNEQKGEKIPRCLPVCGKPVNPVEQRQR
Test: Assay of C1r Enzyme Activity (Assay 1), thioester substrate z-Gly-Arg-S-Bzl with DTNB
Format: biochemical
Conditions: Table 1 and text, pH 7.4-7.5, read-out: Inhibition of Clr Assay 1 (IC50)
Description: Assay of C1 r Enzyme Activity Purified human C1 r was obtained commercially from Enzyme Research Labs (South Bend, Ind.). The enzyme is stored frozen at -70° C. at a stock concentration of about 1 mg/mL of protein until the enzyme is needed. […] The thioester substrate, z-Gly-Arg-S-Bzl, for C1 r assays (McRae, et al., 1981) is obtained commercially from Enzyme System Products (Livermore, Calif.). All other reagents were obtained from Sigma Chemical Co. (St. Louis, Mo.). The procedure for assaying the inhibition of C1 r enzyme activity is as follows. A 5 mM stock solution of z-Gly-Arg-S-Bzl is made in dimethylsulfoxide (DMSO) and stored at room temperature until needed. The stock substrate solution is diluted 3 parts stock substrate solution to 7 parts distilled water to make a 1.5 mM working substrate solution. The working substrate solution is made just before it is needed. A fresh solution of 20 μg/mL of C1 r enzyme is made in 10 mM Tris buffer, pH 7.4. The enzyme solution can be stored on ice for up to an hour. […] Compounds at concentrations ranging from 1 mM to 0.010 mM are dissolved in DMSO and a 10 μL aliquot of each concentration is deposited in a well of a 96-well microtiter plate. Fifty microliters of the working substrate solution and 50 μL of DTNB solution are then dispensed in the wells of the microtiter plate, followed by the immediate addition of 50 μL of the C1 r enzyme solution to start the assay. The assay produces a yellow color that is read in the kinetic mode using a Molecular Devices Thermomax microplate reader set to a wavelength of 405 nm. The assay background is followed by monitoring wells that contain substrate, buffer, and DTNB solutions but no enzyme. All assays are performed in triplicate at each inhibitor concentration tested. Values for each inhibitor concentration are reported as optical density (OD)/minute.

Row | Compound | IC50
1 | O=c1oc(Nc2cccc(I)c2)nc2ccccc12 [Example 5, 2-(3-Iodo-phenylamino)-benzo[d][1,3]oxazin-4-one] | > 67 µM
2 | O=c1oc(Nc2ccc(I)cc2)nc2ccccc12 [Example 6, 2-(4-Iodo-phenylamino)-benzo[d][1,3]oxazin-4-one] | > 67 µM
3 | CSc1ccccc1Nc1nc2ccccc2c(=O)o1 [Example 8, 2-(2-Methylsulfanyl-phenylamino)-benzo[d][1,3]oxazin-4-one] | > 66 µM
4 | CCN(c1nc2ccccc2c(=O)o1)c1ccccc1I [Example 11, 2-[Ethyl-(2-iodo-phenyl)-amino]-benzo[d][1,3]oxazin-4-one] | > 66 µM
5 | CN(C(=O)c1c(Cl)cccc1Cl)c1nc2ccccc2c(=O)o1 [Example 13, 2,6-Dichloro-N-methyl-N-(4-oxo-4H-benzo[d][1,3]oxazin-2-yl)-benzamide] | 8 µM
6 | CN(C(=O)c1ccccc1)c1nc2ccccc2c(=O)o1 [Example 17, N-Methyl-N-(4-oxo-4H-benzo[d][1,3]oxazin-2-yl)benzamide] | 10.7 µM
7 | CCN(C(=O)c1ccccc1I)c1nc2ccccc2c(=O)o1 [Example 18, N-Ethyl-2-iodo-N-(4-oxo-4H-benzo[d][1,3]oxazin-2-yl)-benzamide] | 8.3 µM
8 | CN(C)c1ccc2c(=O)oc(Nc3ccccc3I)nc2c1 [Example 19, 7-Dimethylamino-2-(2-iodo-phenylamino)-benzo[d][1,3]oxazin-4-one] | > 66 µM
9 | O=c1oc(Nc2ccccc2I)nc2cccc(Cl)c12 [Example 21, 5-Chloro-2-(2-iodo-phenylamino)-benzo[d][1,3]oxazin-4-one] | 14.5 µM
10 | COc1ccc2nc(Nc3ccccc3I)oc(=O)c2c1 [Example 24, 2-(2-Iodo-phenylamino)-6-methoxy-benzo[d][1,3]oxazin-4-one] | 55 µM
11 | COc1ccc2c(=O)oc(Nc3ccccc3I)nc2c1 [Example 25, 2-(2-Iodo-phenylamino)-7-methoxy-benzo[d][1,3]oxazin-4-one] | > 66 µM
12 | Cc1cccc2nc(Nc3ccccc3I)oc(=O)c12 [Example 26, 2-(2-Iodo-phenylamino)-5-methyl-benzo[d][1,3]oxazin-4-one] | > 66 µM
13 | Cc1ccc2nc(Nc3ccccc3I)oc(=O)c2c1 [Example 27, 2-(2-Iodo-phenylamino)-6-methyl-benzo[d][1,3]oxazin-4-one] | > 66 µM
14 | CN(C(=O)c1ccccc1F)c1nc2ccccc2c(=O)o1 [Example 33, 2-Fluoro-N-methyl-N-(4-oxo-4H-benzo[d][1,3]oxazin-2-yl)-benzamide] | 60 µM
15 | CN(C(=O)c1ccccc1Cl)c1nc2ccccc2c(=O)o1 [Example 34, 2-Chloro-N-methyl-N-(4-oxo-4H-benzo[d][1,3]oxazin-2-yl)-benzamide] | 16 µM
16 | COc1ccccc1C(=O)N(C)c1nc2ccccc2c(=O)o1 [Example 35, 2-Methoxy-N-methyl-N-(4-oxo-4H-benzo[d][1,3]oxazin-2-yl)-benzamide] | > 66 µM
17 | Cc1ccccc1C(=O)N(C)c1nc2ccccc2c(=O)o1 [Example 36, 2,N-Dimethyl-N-(4-oxo-4H-benzo[d][1,3]oxazin-2-yl)-benzamide] | > 67 µM
18 | CN(C(=O)c1cccc(I)c1)c1nc2ccccc2c(=O)o1 [Example 37, 3-Iodo-N-methyl-N-(4-oxo-4H-benzo[d][1,3]oxazin-2-yl)-benzamide] | 20 µM
19 | CN(C(=O)c1ccc(I)cc1)c1nc2ccccc2c(=O)o1 [Example 38, 4-Iodo-N-methyl-N-(4-oxo-4H-benzo[d][1,3]oxazin-2-yl)-benzamide] | 33 µM
20 | Cc1cccc2nc(N(C)C(=O)c3ccccc3I)oc(=O)c12 [Example 39, 2-Iodo-N-methyl-N-(5-methyl-4-oxo-4H-benzo[d][1,3]oxazin-2-yl)-benzamide] | > 66 µM

Now those with a lower IC50, led by results:

Row | IC50 | Compound
21 | 6.5 µM | O=c1oc(Nc2ccccc2Cl)nc2ccccc12 [Example 2, 2-(2-Chloro-phenylamino)-benzo[d][1,3]oxazin-4-one]
22 | 6 µM | CN(C(=O)c1ccsc1)c1nc2ccccc2c(=O)o1 [Example 32, Thiophene-3-carboxylic acid methyl-(4-oxo-4H-benzo[d][1,3]oxazin-2-yl)-amide]
23 | 5.1 µM | O=c1oc(Nc2ccccc2Br)nc2ccccc12 [Example 3, 2-(2-Bromo-phenylamino)-benzo[d][1,3]oxazin-4-one]
24 | 4 µM | O=c1oc(Nc2ccccc2OC(F)(F)F)nc2ccccc12 [Example 9, 2-(2-Trifluoromethoxy-phenylamino)-benzo[d][1,3]oxazin-4-one]
25 | 4 µM | CN(C(=O)c1ccccc1Br)c1nc2ccccc2c(=O)o1 [Example 14, 2-Bromo-N-methyl-N-(4-oxo-4H-benzo[d][1,3]oxazin-2-yl)-benzamide]
26 | 4 µM | O=c1oc(Nc2ccccc2I)nc2ccc(Cl)cc12 [Example 22, 6-Chloro-2-(2-iodo-phenylamino)-benzo[d][1,3]oxazin-4-one]
27 | 3.5 µM | O=c1oc(Nc2ccccc2I)nc2ccccc12 [Example 4, 2-(2-Iodo-phenylamino)-benzo[d][1,3]oxazin-4-one]
28 | 3.1 µM | CN(C(=O)c1ccccc1I)c1nc2ccccc2c(=O)o1 [Example 12, 2-Iodo-N-methyl-N-(4-oxo-4H-benzo[d][1,3]oxazin-2-yl)-benzamide]
29 | 1.5 µM | CN(C(=O)c1ccccc1C(F)(F)F)c1nc2ccccc2c(=O)o1 [Example 16, N-Methyl-N-(4-oxo-4H-benzo[d][1,3]oxazin-2-yl)-2-trifluoromethyl-benzamide]
30 | 1.4 µM | CN(c1nc2ccccc2c(=O)o1)c1ccccc1I [Example 10, 2-[Methyl-(2-iodo-phenyl)-amino]benzo[d][1,3]oxazin-4-one]
31 | 1.4 µM | O=c1oc(Nc2ccccc2I)nc2cc3ccccc3cc12 [Example 20, 2-(2-Iodo-phenylamino)-naphtho[2,3-d][1,3]oxazin-4-one]
32 | 1.3 µM | O=c1oc(Nc2c(Cl)cccc2Cl)nc2ccccc12 [Example 7, 2-(2,6-Dichloro-phenylamino)-benzo[d][1,3]oxazin-4-one]
33 | 1.3 µM | Cc1ccc2nc(N(C)C(=O)c3ccccc3I)oc(=O)c2c1 [Example 40, 2-Iodo-N-methyl-N-(6-methyl-4-oxo-4H-benzo[d][1,3]oxazin-2-yl)-benzamide]
34 | 0.8 µM | CSc1ccccc1C(=O)N(C)c1nc2ccccc2c(=O)o1 [Example 15, N-Methyl-2-methylsulfanyl-N-(4-oxo-4H-benzo[d][1,3]oxazin-2-yl)-benzamide]
35 | 0.8 µM | Cc1ccc2c(=O)oc(Nc3ccccc3I)nc2c1 [Example 28, 2-(2-Iodo-phenylamino)-7-methyl-benzo[d][1,3]oxazin-4-one]
36 | 0.75 µM | O=c1oc(Nc2ccccc2I)nc2cc([N+](=O)[O-])ccc12 [Example 30, 2-(2-Iodo-phenylamino)-7-nitro-benzo[d][1,3]oxazin-4-one]
37 | 0.7 µM | O=c1oc(Nc2ccccc2I)nc2cc(Cl)ccc12 [Example 23, 7-Chloro-2-(2-iodo-phenylamino)-benzo[d][1,3]oxazin-4-one]
38 | 0.5 µM | O=c1oc(Nc2ccccc2I)nc2cc(Cl)c(Cl)cc12 [Example 29, 6,7-Dichloro-2-(2-iodo-phenylamino)-benzo[d][1,3]oxazin-4-one]
39 | 0.4 µM | O=c1oc(Nc2ccccc2I)nc2cc(C(F)(F)F)ccc12 [Example 31, 2-(2-Iodo-phenylamino)-7-trifluoromethylbenzo[d][1,3]oxazin-4-one]
